One substance from US20210315927A1, “TREATING ARDS USING A POLY-OXYGENATED ALUMINUM HYDROXIDE” (HEMOTEK LLC, priority 2020, published 2021) can be followed below.

The data set relates to mechanically-induced ARDS in rodents. The arrangement: species or system male Sprague Dawley rats. To be noted: rat, in vivo. From the text:
The following protocol and experimental procedures were approved by the Thomas D Morris, Inc. Institutional Animal Care and Use Committee (Protocol #20-007) and are consistent with the National Institutes of Health guidelines for the humane treatment of laboratory animals. Study subjects were male Sprague Dawley rats (N=21; 250-300 g; 8-10 weeks old; Charles River Laboratories, Inc., Wilmington, Mass. housed in pairs with a 12/12 day night cycle and provided ad libitum access to feed and water.
Animals were inducted with 1-5% isoflurane in air for initial preoperative preparation and cannulations. The anesthetic plane was maintained with a continuous intravenous infusion (0.1 mg/kg/min) into a femoral vein using a pre-filled syringe of alfaxalone acetate (Alfaxan, Schering-Plough Animal Health, Welwyn Garden City, UK) that was connected to a syringe pump (Genie Touch™, Kent Scientific, Torrington, Conn.). A second femoral vein was cannulated to be used for infusion of IV treatments. A femoral artery cannula was connected to a pressure transducer for continuous monitoring of arterial blood pressures (BIOPAC MP-150, BIOPAC Systems, Goleta, Calif.). The same femoral artery cannula was also used to collect blood samples for analysis of blood gases and chemistry (ABL90 Flex, Radiometer, Denmark). […]

As for “poly-oxygenated aluminum hydroxide [Ox66™]”, the “supraphysiologic levels of PAO2 or sO2” value is “did not show supraphysiologic levels of PAO2 or sO2”.
